Reference: US7611858B1, “Detection of cannabinoid receptor biomarkers and uses thereof” (University of Florida Research Foundation, Inc., priority 2004, dated 2009)

Experiments:
[1] = tested on: clonal neurospheres from postnatal rat forebrain; format: cell-based; details: at 1 μM
[2] = tested on: AC133 and nestin expression in brain cortex; assay: neural stem cell markers in brain after traumatic brain injury in mice treated with 2-AG (blots); format: in vivo
[3] = tested on: AC133 positive neural progenitors; assay: clonal generation of neurospheres from dissociated mouse postnatal forebrain; format: cell-based
[4] = i.p. 5 mg/kg daily, 3 hr, 24 hr and 5 days post injury
[5] = treatment post injury 5 mg/kg i.p. daily

Molecule	clonal neurospheres from postnatal rat forebrain (FIG. 8A) [1]	AC133 in brain cortex after TBI (FIG. 6A) [2, 4]	Nestin in brain cortex after TBI (FIG. 6B) [2, 4]	expression of AC133 neural stem cells after traumatic brain injury (FIG. 10A) [2, 5]	expression of nestin in neural stem cells after traumatic brain injury (FIG. 10B) [2, 5]	clonal generation of neurospheres [3]
CCCCC/C=C\C/C=C\C/C=C\C/C=C\CCCC(=O)OC(CO)CO [2-AG, 2-arachidonoyl glycerol]	abolition	up-regulation	up-regulation	increase of enhanced expression	increase of enhanced expression	instigated clonal generation of neurospheres
lysophosphatidic acid [LPA]	–	–	–	–	–	instigated clonal generation of mouse neurospheres
